Tests used:
beef feedlot cattle = assay: 56-d study: animal mobility (NAMI mobility score); assay type: in vivo; conditions: for Percentage of steers, mobility score 1, Lairage / Percentage of steers, mobility score 2, Lairage / Percentage of steers, mobility score >2, Lairage / Percentage of steers, mobility score 1, Pen / Percentage of steers, mobility score 2, Pen / Percentage of steers, mobility score >2, Pen / Percentage of steers, mobility score 1, Loadout / Percentage of steers, mobility score 2, Loadout / Percentage of steers, mobility score >2, Loadout: final 56 d; for Percentage of steers, mobility score 1, Lairage / Percentage of steers, mobility score 2, Lairage / Percentage of steers, mobility score >2, Lairage: antemortem inspection at the packing plant; for Percentage of steers, mobility score 1, Pen / Percentage of steers, mobility score 2, Pen / Percentage of steers, mobility score >2, Pen: approx. 1 wk prior to harvest in home pens; for Percentage of steers, mobility score 1, Loadout / Percentage of steers, mobility score 2, Loadout / Percentage of steers, mobility score >2, Loadout: immediately prior to loading into trucks
Protocol: Animal mobility assessments were conducted three times prior to harvest at: 1) approximately 1 week prior to harvest while cattle were in their home pens; 2) after collection of final pen weights and immediately prior to loading into trucks for slaughter; and 3) at antemortem inspection during lairage at the packing plant. The mobility scorer used the North American Meat Institute's (NAMI) mobility scoring system (Edwards-Callaway et al., 2017) to evaluate cattle mobility.
The label claim variable of cumulative NH3 gas emissions over the treatment period normalized by final BW (with d −59 BW as a covariate) for the period and HCW (g of gas kg^−1 of BW or g of gas kg^−1 HCW) was determined by utilizing NH3 gas emissions equations developed from the LUB clinical effectiveness study (FDA-FOI, 2018) and validated using animals of similar BW as described by Brown et al. (2019). The pen was the experimental unit for each outcome. Differences were deemed significant using a two-sided test at Ptrt≤0.05, however, a less stringent significance threshold of Ptrt≤0.10 was used for abnormal health observations. Fixed effect of treatment and random effects of time replicate and block within time replicate were included in the model. Discrete variables were analyzed using a generalized linear mixed model, Proc GLIMMIX SAS version 9.4 unless there were convergence problems due to sparseness of data. A binomial distribution was assumed and a logit link used in the analysis. Contrasts were constructed between the CON group and each non-CON dosage group, and differences were deemed significant at Pdose≤0.05. If convergence problems arose due to sparseness of data, Fisher's exact test (binomial data; Proc FREQ in SAS) or Wilcoxon's rank-sum test (categorical data; Proc NARIWAY in SAS) was used to evaluate differences between the CON group and the non-CON dosage groups. In all cases except for health observations, differences were deemed significant at Ptrt≤0.05 for these primary discrete variables. Additionally, non-CON dosage groups were compared to one another using a significance level of Pdose≤0.05. A less stringent Ptrt≤0.10 level of significance was used for health observations.

beef steers = assay: Lubabegron removal period study: carcass measures; assay type: in vivo, cattle; conditions: for Calculated YG / Ribeye Area / HCW / Marbling / Dressing: Lubabegron 3.5 mg/kg DM fed 56 d; for HCW: steers; for Marbling: 500 = Small; for Dressing: final liveweight with 4% shrink
Protocol: This experiment was conducted to evaluate the effect of removing lubabegron from feed for increasing intervals prior to slaughter on growth performance of steers.
Seven hundred English x Continental cross steers (initial BW=531±8.8 kg) were used in a randomized complete block design with seven treatments. Pen served as the experimental unit. […] Animals were managed as two-time replications with each replication containing five blocks (7 pens/block and 10 steers/pen). All ten blocks started and ended within 48 hours of each other. Cattle were weighed by pen using a 45,000-kg capacity pen scale (Model WI-130, Avery Weigh-Tronix LLC, Fairmont, MN; 3.66 m×21.34 m). All treatments were on feed for 71 d with harvest scheduled for 72 d. Because of an impending weather event, cattle were weighed to obtain a final BW one d early. Cattle were placed on their respective ration for the additional d and then shipped to the harvest facility the following morning.
657 head were transported to a harvest facility approximately 495 km from the research facility. Animals were scored for animal mobility using the North American Meat Institute (NAMI, 2015) scoring scale described by Edwards-Callaway et al., (2017) while in lairage. […] Experienced staff collected an ear tag number, plant identification (ID), and carcass sequence and applied a unique carcass ID. Data collected on the kill floor included HCW, instances of excessive trim (>approximately 9 kg), and prevalence of liver abscess (Brown et al., 1975). Other carcass measures were obtained via instrument grading.
Continuous variables were analyzed using the Mixed procedure of SAS (version 9.4; SAS Institute, Cary, NC). Block served as a random effect whereas treatment was fixed. Initial body weight was used to describe the uniformity of cattle randomized to treatment and used as a covariate when appropriate. Data were calculated with deads and removals excluded. Linear and quadratic effects of lubabegron removal were conducted as were individual comparisons for duration of removal (i.e., 0 vs 2 d; 0 vs 4 d, 0 vs 6 d; 0 vs 8 d and 0 vs 16 d). Fisher's Exact test was evaluated on mobility scores 1 and 2. No test was conducted on mobility scores of 3 or 4 because no scores were reported. Simple means and standard deviation of the tissues collected for the 5 animals were calculated.

CC(C)(Cc1ccc(Oc2ncccc2C#N)cc1)NC[C@H](O)COc1ccccc1-c1cccs1 [LUB, 2-{4-[2-({(2S)-2-Hydroxy-3-[2-(2-thienyl)phenoxy]propyl}amino)-2-methylpropyl]phenoxy}nicotinonitrile]
Percentage of steers, mobility score 1, Lairage (beef feedlot cattle; 1.5 mg·kg^−1 DM): 80.2% | Percentage of steers, mobility score 2, Lairage (beef feedlot cattle; 1.5 mg·kg^−1 DM): 11.8% | Percentage of steers, mobility score >2, Lairage (beef feedlot cattle; 1.5 mg·kg^−1 DM): 8.0% | Percentage of steers, mobility score 1, Pen (beef feedlot cattle; 1.5 mg·kg^−1 DM): 85.0% | Percentage of steers, mobility score 2, Pen (beef feedlot cattle; 1.5 mg·kg^−1 DM): 11.4% | Percentage of steers, mobility score >2, Pen (beef feedlot cattle; 1.5 mg·kg^−1 DM): 3.6% | Percentage of steers, mobility score 1, Loadout (beef feedlot cattle; 1.5 mg·kg^−1 DM): 76.6% | Percentage of steers, mobility score 2, Loadout (beef feedlot cattle; 1.5 mg·kg^−1 DM): 21.4% | Percentage of steers, mobility score >2, Loadout (beef feedlot cattle; 1.5 mg·kg^−1 DM): 2.0% | Percentage of steers, mobility score 1, Lairage (beef feedlot cattle; 3.5 mg·kg^−1 DM): 81.7% | Percentage of steers, mobility score 2, Lairage (beef feedlot cattle; 3.5 mg·kg^−1 DM): 12.1% | Percentage of steers, mobility score >2, Lairage (beef feedlot cattle; 3.5 mg·kg^−1 DM): 6.2% | Percentage of steers, mobility score 1, Pen (beef feedlot cattle; 3.5 mg·kg^−1 DM): 85.9% | Percentage of steers, mobility score 2, Pen (beef feedlot cattle; 3.5 mg·kg^−1 DM): 10.4% | Percentage of steers, mobility score >2, Pen (beef feedlot cattle; 3.5 mg·kg^−1 DM): 3.7% | Percentage of steers, mobility score 1, Loadout (beef feedlot cattle; 3.5 mg·kg^−1 DM): 73.7% | Percentage of steers, mobility score 2, Loadout (beef feedlot cattle; 3.5 mg·kg^−1 DM): 23.1% | Percentage of steers, mobility score >2, Loadout (beef feedlot cattle; 3.5 mg·kg^−1 DM): 3.2% | Percentage of steers, mobility score 1, Lairage (beef feedlot cattle; 5.5 mg·kg^−1 DM): 80.9% | Percentage of steers, mobility score 2, Lairage (beef feedlot cattle; 5.5 mg·kg^−1 DM): 12.6% | Percentage of steers, mobility score >2, Lairage (beef feedlot cattle; 5.5 mg·kg^−1 DM): 6.5% | Percentage of steers, mobility score 1, Pen (beef feedlot cattle; 5.5 mg·kg^−1 DM): 86.9% | Percentage of steers, mobility score 2, Pen (beef feedlot cattle; 5.5 mg·kg^−1 DM): 8.3% | Percentage of steers, mobility score >2, Pen (beef feedlot cattle; 5.5 mg·kg^−1 DM): 4.8% | Percentage of steers, mobility score 1, Loadout (beef feedlot cattle; 5.5 mg·kg^−1 DM): 71.3% | Percentage of steers, mobility score 2, Loadout (beef feedlot cattle; 5.5 mg·kg^−1 DM): 25.0% | Percentage of steers, mobility score >2, Loadout (beef feedlot cattle; 5.5 mg·kg^−1 DM): 3.7% | Cattle scoring a mobility score of 1 or 2 (beef feedlot cattle; 56 d, all treatments, at all assessment times): ≥ 92% | Animals receiving abnormal mobility scores of >2, across treatments (beef feedlot cattle; 56 d, any assessment time point prior to harvest): not different across treatments | Percent of cattle scored 1 (mobility), differences among treatments (beef feedlot cattle; 56 d, any assessment time, Ptrt≥0.17): No differences | Percent of cattle receiving mobility scores of 1 or 2, treatment differences (beef feedlot cattle; 56 d, at any time, Ptrt≥0.170): No treatment differences | Calculated YG (beef steers; removal duration 0 d): 3.08 | Ribeye Area (beef steers; removal duration 0 d): 91.0 cm^2 | HCW (beef steers; removal duration 0 d): 409 kg | Marbling (beef steers; removal duration 0 d): 482 | Dressing (beef steers; removal duration 0 d): 62.7% | Calculated YG (beef steers; removal duration 2 d): 3.20 | Ribeye Area (beef steers; removal duration 2 d): 90.3 cm^2 | HCW (beef steers; removal duration 2 d): 411 kg | Marbling (beef steers; removal duration 2 d): 491 | Dressing (beef steers; removal duration 2 d): 62.7% | Calculated YG (beef steers; removal duration 4 d): 3.21 | Ribeye Area (beef steers; removal duration 4 d): 90.3 cm^2 | HCW (beef steers; removal duration 4 d): 413 kg | Marbling (beef steers; removal duration 4 d): 488 | Dressing (beef steers; removal duration 4 d): 62.8% | Calculated YG (beef steers; removal duration 6 d): 3.06 | Ribeye Area (beef steers; removal duration 6 d): 91.6 cm^2 | HCW (beef steers; removal duration 6 d): 410 kg | Marbling (beef steers; removal duration 6 d): 483 | Dressing (beef steers; removal duration 6 d): 62.9% | Calculated YG (beef steers; removal duration 8 d): 3.14 | Ribeye Area (beef steers; removal duration 8 d): 90.3 cm^2 | HCW (beef steers; removal duration 8 d): 413 kg | Marbling (beef steers; removal duration 8 d): 483 | Dressing (beef steers; removal duration 8 d): 63.0% | Calculated YG (beef steers; removal duration 16 d): 3.18 | Ribeye Area (beef steers; removal duration 16 d): 89.0 cm^2 | Marbling (beef steers; removal duration 16 d): 484 | Dressing (beef steers; removal duration 16 d): 62.6% | Effect of removal duration on any measured carcass parameter (beef steers; lubabegron 3.5 mg/kg DM, removal 0 to 16 d, P>0.05): no effect | Calculated yield grade improvement vs non-treated group (beef steers; lubabegron fed for 56 d with a 0 d removal): 10.5% | Effects on BW and HCW of duration of lubabegron removal (beef steers; removal up to 16 d): not affected

Source: US20260048046A1, “METHOD FOR IMPROVING GROWTH PERFORMANCE IN FEEDLOT CATTLE” (Elanco US Inc., priority 2022, published 2026)
